Experimental findings from ChEMBL document CHEMBL1130452, “L-373,890, An achiral, noncovalent, subnanomolar thrombin inhibitor” (Bioorg Med Chem Lett, 1997) are described below.

Bounds are passed on as bounds.

The target of test [1] is T1, Prothrombin (Homo sapiens, UniProt P00734). As to the kind of experiment: Binding affinity against human thrombin.
The next test addresses Serine protease 1 (Homo sapiens, UniProt P07477). Briefly: Binding affinity against human trypsin.
Test [2] concerns the target Vitamin K-dependent protein C (Homo sapiens, UniProt P04070). As to the kind of experiment: Binding affinity against serine protease Activated protein C.
The target of the next test is Chymotrypsinogen A (Bos taurus, UniProt P00766). Briefly: Binding affinity against serine protease […]. Format: cell-free.
Test [3] has as its target Tissue-type plasminogen activator (Homo sapiens, UniProt P00750). Briefly: Binding affinity against serine protease Tissue type plasminogen activator.
In another test the target is Plasminogen (Rattus norvegicus, UniProt Q01177). Briefly: Binding affinity against serine protease plasmin.
A further test has as its target Plasma kallikrein (Homo sapiens, UniProt P03952). Briefly: Binding affinity against serine protease plasma kallikrein. The format is cell-free.
Test [4] has as its target T1, Prothrombin. Briefly: Binding affinity was evaluated against human thrombin.

Sequence of Serine protease 1 (P07477 whole entry): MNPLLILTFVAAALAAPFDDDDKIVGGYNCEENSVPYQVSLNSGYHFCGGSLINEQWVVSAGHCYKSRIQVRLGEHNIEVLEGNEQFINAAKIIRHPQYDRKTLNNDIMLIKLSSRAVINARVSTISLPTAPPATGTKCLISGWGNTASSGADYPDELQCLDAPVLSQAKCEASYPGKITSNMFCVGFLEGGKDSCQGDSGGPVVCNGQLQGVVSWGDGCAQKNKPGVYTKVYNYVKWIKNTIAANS
Sequence of Vitamin K-dependent protein C (P04070 43-197 limits assumed): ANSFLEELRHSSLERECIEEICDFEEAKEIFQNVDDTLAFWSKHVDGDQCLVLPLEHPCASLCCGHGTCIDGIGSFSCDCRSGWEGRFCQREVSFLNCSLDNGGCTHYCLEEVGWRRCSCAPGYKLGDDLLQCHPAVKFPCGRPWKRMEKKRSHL
Sequence of Vitamin K-dependent protein C (P04070 212-461 limits assumed): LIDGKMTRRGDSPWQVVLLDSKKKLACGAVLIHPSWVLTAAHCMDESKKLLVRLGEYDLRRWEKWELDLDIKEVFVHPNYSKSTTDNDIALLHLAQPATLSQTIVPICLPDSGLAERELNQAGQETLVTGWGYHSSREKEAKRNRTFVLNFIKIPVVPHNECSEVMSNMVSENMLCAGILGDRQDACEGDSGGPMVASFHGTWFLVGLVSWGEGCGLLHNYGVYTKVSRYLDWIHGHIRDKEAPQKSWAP
Sequence of Plasminogen (Q01177 97-581 limits assumed): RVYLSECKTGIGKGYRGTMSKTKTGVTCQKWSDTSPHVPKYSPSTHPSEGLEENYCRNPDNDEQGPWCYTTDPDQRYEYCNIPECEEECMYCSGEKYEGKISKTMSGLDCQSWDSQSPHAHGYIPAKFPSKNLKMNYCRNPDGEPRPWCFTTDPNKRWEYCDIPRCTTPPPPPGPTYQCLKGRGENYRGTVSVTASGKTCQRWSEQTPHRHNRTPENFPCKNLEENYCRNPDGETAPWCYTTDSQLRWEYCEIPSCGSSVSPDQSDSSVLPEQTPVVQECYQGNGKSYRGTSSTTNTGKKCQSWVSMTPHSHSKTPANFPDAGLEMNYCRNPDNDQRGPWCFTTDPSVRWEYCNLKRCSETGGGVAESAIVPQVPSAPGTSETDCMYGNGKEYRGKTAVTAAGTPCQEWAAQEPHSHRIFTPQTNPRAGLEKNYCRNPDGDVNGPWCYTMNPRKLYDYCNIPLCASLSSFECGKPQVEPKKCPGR
Sequence of Plasminogen (Q01177 582-812 limits assumed): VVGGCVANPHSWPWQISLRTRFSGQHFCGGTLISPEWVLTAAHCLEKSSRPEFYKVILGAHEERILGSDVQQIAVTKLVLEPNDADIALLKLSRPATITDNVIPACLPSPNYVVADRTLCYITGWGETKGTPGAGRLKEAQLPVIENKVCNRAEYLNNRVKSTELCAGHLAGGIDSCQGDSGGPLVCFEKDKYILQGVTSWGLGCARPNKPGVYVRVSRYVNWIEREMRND
Sequence of Tissue-type plasminogen activator (P00750 whole entry): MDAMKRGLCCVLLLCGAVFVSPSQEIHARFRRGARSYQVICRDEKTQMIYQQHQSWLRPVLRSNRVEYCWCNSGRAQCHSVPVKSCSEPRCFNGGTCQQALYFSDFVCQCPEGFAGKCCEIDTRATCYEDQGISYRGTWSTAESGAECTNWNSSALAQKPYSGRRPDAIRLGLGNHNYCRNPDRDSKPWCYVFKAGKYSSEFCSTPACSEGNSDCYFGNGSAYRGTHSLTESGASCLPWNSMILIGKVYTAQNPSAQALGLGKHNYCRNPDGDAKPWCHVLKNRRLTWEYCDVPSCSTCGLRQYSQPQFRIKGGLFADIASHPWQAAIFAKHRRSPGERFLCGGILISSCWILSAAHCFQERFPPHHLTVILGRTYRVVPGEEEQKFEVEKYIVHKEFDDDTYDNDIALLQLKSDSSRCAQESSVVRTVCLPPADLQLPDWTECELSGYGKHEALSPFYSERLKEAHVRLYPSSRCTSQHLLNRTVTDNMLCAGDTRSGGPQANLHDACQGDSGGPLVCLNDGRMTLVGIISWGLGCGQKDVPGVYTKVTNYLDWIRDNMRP
Sequence of Plasma kallikrein (P03952 20-390 limits assumed): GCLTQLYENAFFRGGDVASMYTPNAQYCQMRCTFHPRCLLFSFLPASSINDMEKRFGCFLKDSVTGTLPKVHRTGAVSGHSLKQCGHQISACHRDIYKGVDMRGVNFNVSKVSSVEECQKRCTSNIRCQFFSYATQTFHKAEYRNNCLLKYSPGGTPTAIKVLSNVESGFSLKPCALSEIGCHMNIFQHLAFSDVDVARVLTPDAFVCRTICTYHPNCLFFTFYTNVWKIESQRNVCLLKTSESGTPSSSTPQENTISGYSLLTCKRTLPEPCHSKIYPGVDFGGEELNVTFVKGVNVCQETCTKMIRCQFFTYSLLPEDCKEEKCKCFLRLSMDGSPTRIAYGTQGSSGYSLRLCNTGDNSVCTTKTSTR
Sequence of Plasma kallikrein (P03952 391-638 limits assumed): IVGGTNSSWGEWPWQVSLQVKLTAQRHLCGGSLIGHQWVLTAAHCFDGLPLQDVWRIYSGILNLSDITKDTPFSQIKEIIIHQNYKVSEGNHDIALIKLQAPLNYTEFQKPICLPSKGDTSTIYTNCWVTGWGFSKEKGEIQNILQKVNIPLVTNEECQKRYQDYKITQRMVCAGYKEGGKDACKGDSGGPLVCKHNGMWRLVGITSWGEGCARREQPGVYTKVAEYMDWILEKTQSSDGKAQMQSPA

As to `Cc1ccc(NC(=O)CC(c2ccccc2)c2ccccc2)c(=O)n1CC(=O)NCC1CCN(C(=N)N)CC1`, the Ki on Prothrombin [1] was 166 nM; at Serine protease 1 it was 890 nM.
Turning to `Cc1ccc(S(=O)(=O)Nc2ccc(C)n(CC(=O)NCC3CCN(C(=N)N)CC3)c2=O)cc1`, the results for the Ki at Prothrombin [1] and on Serine protease 1 were 29 nM and 140 nM, respectively.
On to `Cc1ccc(NS(=O)(=O)Cc2ccccc2)c(=O)n1CC(=O)NCC1CCN(C(=N)N)CC1`, for which the Ki in test [2] was above 20000 nM; on Chymotrypsinogen A it was above 20000 nM; in test [3] it was above 20000 nM; at Plasminogen, above 20000 nM; at Plasma kallikrein, above 20000 nM; at Serine protease 1, 570 nM.
As for `Cc1ccc(NS(=O)(=O)Cc2ccccc2)c(=O)n1CC(=O)NC[C@H]1CC[C@H](N)CC1`, on Serine protease 1, the affinity corresponds to a Ki of 3000 nM.
As for `CN[C@H](Cc1ccccc1)C(=O)N1CCCC1C(=O)NC[C@H]1CC[C@H](N)CC1` (some centres not stated), the Ki on Prothrombin [4] was found to be 5 nM.
Regarding `Cc1ccc(NC(=O)OCc2ccccc2)c(=O)n1CC(=O)NCC1CCN(C(=N)N)CC1`, the figures for the Ki at Prothrombin [1] and on Serine protease 1 were 77 nM and 350 nM, respectively.
For `Cc1ccc(S(=O)(=O)Nc2ccc(C)n(CC(=O)NC[C@H]3CC[C@H](N)CC3)c2=O)cc1`, the Ki at Prothrombin [1] was 47 nM; on Serine protease 1 it was 2100 nM.
The like results for `Cc1ccc(NCCc2ccccc2)c(=O)n1CC(=O)NC[C@H]1CC[C@H](N)CC1` were, in that order, 47 nM and 2200 nM.
As for `Cc1ccc(NC(=O)CCc2ccccc2)c(=O)n1CC(=O)NCC1CCN(C(=N)N)CC1`, the Ki at Prothrombin [1] stood at 95 nM; on Serine protease 1 it was 940 nM.
For the compound `Cc1ccc(NC(=O)c2ccccc2)c(=O)n1CC(=O)NCC1CCN(C(=N)N)CC1`, the figures for the Ki on Prothrombin [1] and on Serine protease 1 were 690 nM and 1500 nM, respectively.

The term Ki denotes a dissociation constant, usually derived from enzyme kinetics or from competition with a known ligand.
